Laboratory results taken from PMC7601674, “CoQ10 Deficient Endothelial Cell Culture Model for the Investigation of CoQ10 Blood–Brain Barrier Transport” (Journal of Clinical Medicine, 2020).

Columns and labels:
bEnd.3 BBB model = settings: cited from earlier work
[1] = set-up: method as in PMID 11259830; settings: cited from earlier work
[2] = system: bEnd.3 cells (mouse BBB cell line) monolayer; assay: CoQ10 transport assay across bEnd.3 monolayer on Transwell filters (control or pABA treated); settings: for A to B CoQ10 transport, % of control / Apical to Basal CoQ10 transport, % of control: BLT-1 10 µM, FPS-ZM1 1 µM; for A to B CoQ10 transport, % of control: verapamil 0.1 mM, added 2 h before, 60 min; for Apical to Basal CoQ10 transport, % of control: RAP 0.5 µM; for Effect on Basal to Apical transport of CoQ10: antioxidant 50 µM co-administered with CoQ10 10 µM; for Effect on B to A transport of CoQ10: pABA treated bEnd.3, antioxidant 50 µM
Description: (§1) Unless stated, CoQ10 was pre-treated by incubation in serum at a concentration of 20 µM for 45 min at 37 °C, and added to assay buffer on either the Apical (blood facing) or Basal (brain facing) side of the cells on Transwell filters. The final concentration of CoQ10 used in the assays was 10 µM in serum (50% v/v). Cells were then incubated for 60 min on an orbital shaker (100 rpm) at 37 °C. Samples of the Apical (A) and Basal (B) media were then taken for analysis to calculate A to B (blood-to-brain) or B to A (brain-to-blood) Papp in cm/s, as previously described by Patabendige et al.. CoQ10 concentrations were determined using the LC-MS/MS method described above (Section 2.2).
(§2) Inhibitors of transport were added to both Apical and Basal sides of the cells for 2 h prior to assay. Antioxidants were pre-incubated with CoQ10 in serum for 45 min prior to assay, and were present in the assay buffer. Compounds used were; SR-B1 inhibitor, blocker of lipid transport-1 (BLT-1; 10 µmol/L)
(§3) As previously described, para-aminobenzoic acid (pABA) was used as a pharmacological reagent to induce CoQ10 deficiency. The mechanism of action is via competitive inhibition of polyprenyl-4-hydroxybenzoate transferase (Coq2p), a key enzyme in the later stages of the CoQ10 biosynthetic pathway. Following the method of Duberley et al., 1 mmol/L pABA was added to culture medium for 5 days prior to assay.

MRC complex II-III = assay: Mitochondrial respiratory chain enzyme activity, complex II-III; format: cell-based, mouse
Description: (§4) Activities of the mitochondrial respiratory chain enzymes; complex I, complex II-III and complex IV together with the mitochondrial marker enzyme, and citrate synthase (EC 2.3.3.1) were determined spectrophotometrically on a Uvikon XL spectrophotometer with LabPower software (Version 2.06S, Northstar Scientific Ltd., Potton, UK) according to the method previously described by Hargreaves et al.. Results were expressed as a ratio to citrate synthase activity, a validated biomarker of mitochondrial content, and were normalised against mg protein. Protein quantification was determined according to the Lowry method using BSA as a standard.

bEND.3 cells = assay: MTT cell viability assay; format: cell-based, mouse; settings: pABA up to 1 mM, 5 days
Description: Cell viability was determined using the MTT assay described by Mosmann. Cells were passaged onto 96-well plates, grown to confluence and washed with HBSS prior to the addition of 3-[4,5-dimethylthiazol-2-yl]-2,5-diphenyl tetrazolium bromide (MTT; 1 mg/mL) in DMEM (without phenol red). Cells were then incubated for 4 h at 37 °C, 5% CO2, after which the medium was removed, and the remaining formazan crystals dissolved in propan-2-ol (100 μL/well). The resulting purple solution was spectrophotometrically measured at 540 nm using a Multiskan Ascent plate reader with Ascent software (MTX LabSystems, USA).

[3] = system: PBEC tight junction integrity; assay: Transendothelial electrical resistance (TEER) of PBEC monolayer; format: cell-based, porcine; settings: PBEC after 5 days pABA (1 mM); control 856 ± 71; n = 6
Description: (§5) Primary porcine brain endothelial cells (PBEC) were isolated and cultured as previously published. Briefly, cells were seeded at 10 × 10^4 cells/cm^2 on collagen and fibronectin-coated polycarbonate Transwell filters (Corning 0.4 µm pore size) in 12-well plates, and grown in low glucose DMEM (Sigma D5546) supplemented with bovine plasma-derived serum (10% v/v; BPDS, First Link UK), glutamine (2 mM), heparin (125 µg/mL), penicillin (100 U/mL) and streptomycin (100 µg/mL), at 37 °C in a 5% CO2 incubator. PBECs were grown in non-contact co-culture above primary rat astrocytes until confluent, then supplemented with hydrocortisone (550 nM), 8-4-chlorophenylthio-cAMP (250 µM) and RO-20-1724 (17.5 µM) in serum-free medium for a further 3 days. Before assays of CoQ10 transport, PBECs were separated from astrocytes by moving transwell filters to fresh culture plates.
as §3

[4] = system: bEnd.3 cellular CoQ10 content; assay: Cellular CoQ10 depletion by pABA, bEnd.3; format: cell-based, mouse
Description: (§6) Final CoQ10 concentrations (nmol/L) were calculated as a ratio of CoQ10/CoQ10–[^2H9] peak areas, and quantified against the corresponding calibration curve, with appropriate correction for dilution. For intracellular determination of CoQ10 the concentration was divided by total protein (mg/mL) and expressed as pmol/mg (nmol/g) of protein.

[5] = system: PBEC cellular CoQ10 content; assay: Cellular CoQ10 depletion by pABA, PBEC; format: cell-based, porcine
Description: as §6

MRC complex I = assay: Mitochondrial respiratory chain enzyme activity, complex I; format: cell-based, mouse
Description: as §4

[6] = system: citrate synthase (EC 2.3.3.1); assay: Citrate synthase activity; format: cell-based, mouse; settings: bEND.3, 1 mM pABA 5 days
Description: as §4

[7] = system: claudin-5 tight junction protein in PBEC; assay: Confocal microscopy of claudin-5; format: cell-based, porcine; settings: PBEC after 5 days pABA (1 mM)
Description: Cells for confocal microscopy were fixed in paraformaldehyde (4% w/v in PBS) for 45 min, washed with HBSS and stored in glycerol (70% v/v in PBS) until use. Cells were permeabilised with Triton-x 100 (0.1% v/v in PBS), incubated with anti-Claudin 5 Monoclonal Antibody (4C3C2) Alexa Fluor 488 (1 in 80 dilution in DAKO, overnight, 4 °C, Thermofisher) to visualise tight junctions. Samples were then mounted in Vectashield containing DAPI for nuclei staining. The Nikon A1 inverted confocal microscope was used with spectral detector and Eclipse Ti-E microscope at ×40 magnification to generate digital images, analysed using Fiji (ImageJ).

MRC complex IV = assay: Mitochondrial respiratory chain enzyme activity, complex IV; format: cell-based, mouse; settings: bEND.3, 1 mM pABA 5 days
Description: as §4

[8] = system: primary porcine brain endothelial cells (PBEC) monolayer; assay: CoQ10 transport assay across PBEC monolayer on Transwell filters; settings: PBEC; RAP 0.5 µM applied to the basal (brain side)
Description: as §5, §1, §2

[9] = pABA treated (1 mM; 5 days) bEnd.3
[10] = bEND.3, 1 mM pABA 5 days, ratio to citrate synthase

CC[C@H]1/C=C/C=C/C[C@@H](C)[C@H](O)[C@@](C)(O)C(=O)[C@@H](C)[C@H](O)[C@@H](C)C(=O)[C@@H](C)[C@H](O)[C@@H](C)/C=C/C(=O)O[C@@H]2[C@H](C)[C@H](CC1)O[C@]1(CC[C@H](C)[C@H](C[C@@H](C)O)O1)[C@H]2C [oligomycin]
Permeability to FITC-dextran (bEnd.3 BBB model): doubled

COC1=C(OC)C(=O)C(CCCCCCCCCCO)=C(C)C1=O [idebenone]
LogP [1]: less than 5
Direction of transport [2]: transport toward the brain side (A to B) greater than efflux to blood (B to A)
Permeability (Papp) compared to CoQ10, A to B direction [2]: 280 ×
Permeability (Papp) compared to CoQ10, B to A direction [2]: 150 ×

CCCCCCC1CCCC1=NNC(N)=S (stereo not drawn) [BLT-1, blocker of lipid transport-1]
Effect on “net” transport of CoQ10 ([2]; control bEnd.3): “net” −ve transport
A to B CoQ10 transport, % of control ([2]; control bEnd.3): 44 % of control
Effect on “net” transport of CoQ10 [2, 9]: no significant effect
Apical to Basal CoQ10 transport, % of control [2, 9]: no effect

C=C(C)[C@H]1Cc2c(ccc3c2O[C@@H]2COc4cc(OC)c(OC)cc4[C@@H]2C3=O)O1 [rotenone]
Permeability to FITC-dextran (bEnd.3 BBB model): doubled

N#CC(C#N)=NNc1ccc(OC(F)(F)F)cc1 [FCCP]
Permeability to FITC-dextran (bEnd.3 BBB model): doubled

Cc1c(C)c2c(c(C)c1O)CC[C@@](C)(CCC[C@H](C)CCC[C@H](C)CCCC(C)C)O2 [α-tocopherol]
Effect on Basal to Apical transport of CoQ10 ([2]; control bEnd.3): increased Basal to Apical transport of CoQ10
Effect on B to A transport of CoQ10 [2]: enhanced B to A transport

Cc1c(C)c2c(c(C)c1O)CCC(C)(C(=O)O)O2 (stereo not drawn) [Trolox]
Effect on Basal to Apical transport of CoQ10 ([2]; control bEnd.3): increased Basal to Apical transport of CoQ10
Effect on B to A transport of CoQ10 [2]: enhanced B to A transport

O=C(c1ccc(Cl)cc1)N(Cc1ccccc1)C1CCCCC1 [FPS-ZM1]
Effect on “net” transport of CoQ10 ([2]; control bEnd.3): “net” −ve transport
A to B CoQ10 transport, % of control ([2]; control bEnd.3): 50 % of control
Effect on “net” transport of CoQ10 [2, 9]: abolished “net” A to B transport
Apical to Basal CoQ10 transport, % of control [2, 9]: 45 % of control

Nc1ccc(C(=O)O)cc1 [pABA, para-aminobenzoic acid]
Decrease in MRC complex II-III activity (MRC complex II-III; [10]): 72%
MRC complexes II-III activity, % of control (MRC complex II-III; bEnd.3, pABA 1 mmol/L 5 days): 28 % of control
Cell viability (bEND.3 cells): no change in cell viability
Transendothelial electrical resistance (TEER) [3]: 49 ± 9 Ω · cm^2
Depletion of cellular CoQ10 relative to controls ([4]; bEnd.3, 1 mM pABA 5 days, n = 4): 43%
Cellular CoQ10, % of control ([4]; bEnd.3, pABA 1 mmol/L 5 days): 57 % of control
Depletion of cellular CoQ10 relative to controls ([5]; 1 mM pABA 5 days, n = 4): 36%
Cellular CoQ10, % of control ([5]; pABA 1 mmol/L 5 days): 36 % of control
Decrease in MRC complex I activity (MRC complex I; [10]): 68%
MRC complex I activity, % of control (MRC complex I; bEnd.3, pABA 1 mmol/L 5 days): 32 % of control
Citrate synthase activity [6]: no significant change
Claudin-5 localisation [7]: re-location of claudin-5 tight junction protein away from the cell membrane
MRC complex IV activity, % of control (MRC complex IV): 80 % of control

B1: receptor-associated protein (protein, UniProt P30533 35-357, looked up)
Alpha-2-macroglobulin …: YSREKNQPKPSPKRESGEEFRMEKLNQLWEKAQRLHLPPVRLAELHADLKIQERDELAWKKLKLDGLDEDGEKEARLIRNLNVILAKYGLDGKKDARQVTSNSLSGTQEDGLDDPRLEKLWHKAKTSGKFSGEELDKLWREFLHHKEKVHEYNVLLETLSRTEEIHENVISPSDLSDIKGSVLHSRHTELKEKLRSINQGLDRLRRVSHQGYSTEAEFEEPRVIDLWDLAQSANLTDKELEAFREELKHFEAKIEKHNHYQKQLEIAHEKLRHAESVGDGERVSRSREKHALLEGRTKELGYTVKKHLQDLSGRISRARHNEL
Effect on B-to-A CoQ10 efflux [8]: inhibited the B-to-A efflux
Effect on “net” transport of CoQ10 ([2]; control bEnd.3): “net” +ve transport toward the brain side (A to B)
Effect on “net” transport of CoQ10 [2, 9]: enhanced “net” +ve transport toward the brain side
Apical to Basal CoQ10 transport, % of control [2, 9]: 164 % of control
